PMC12175890 (Science Advances, 2025)

Biological target: T1, BdPAPT-CD (Babesia duncani, UniProt A0AAD9PLN9)
T1 sequence (A0AAD9PLN9 301-734): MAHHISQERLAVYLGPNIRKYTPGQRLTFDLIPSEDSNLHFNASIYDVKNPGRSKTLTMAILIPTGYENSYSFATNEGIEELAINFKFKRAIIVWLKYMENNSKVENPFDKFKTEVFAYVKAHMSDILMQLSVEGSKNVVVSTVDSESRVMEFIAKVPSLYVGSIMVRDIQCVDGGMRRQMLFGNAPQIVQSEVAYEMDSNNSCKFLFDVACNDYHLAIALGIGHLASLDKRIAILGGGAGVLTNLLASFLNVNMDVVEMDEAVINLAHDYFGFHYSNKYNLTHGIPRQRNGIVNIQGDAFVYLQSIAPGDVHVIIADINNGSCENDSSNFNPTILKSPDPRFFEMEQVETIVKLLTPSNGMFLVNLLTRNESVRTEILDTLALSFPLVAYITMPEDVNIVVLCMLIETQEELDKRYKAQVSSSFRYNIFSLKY
Assay: TLC of spermidine formation
Type: biochemical
Conditions: 0.1 mM dcSAM, 0.1 mM putrescine, 37 °C, potassium phosphate pH 7.5

## NCCCCN [PUT]
  TLC of spermidine formation: efficient conversion of PUT to SPD by BdPAPT-Cterm and its CD
